According to BigSolDB 2.1:

N[C@@H](CC(=O)N1CCn2c(nnc2C(F)(F)F)C1)Cc1cc(F)c(F)cc1F
solubility (mole fraction) (in THF, 278.15 K): 0.0212
solubility (mole fraction) (in THF, 283.15 K): 0.0274
solubility (mole fraction) (in THF, 288.15 K): 0.0322
solubility (mole fraction) (in THF, 293.15 K): 0.0363
solubility (mole fraction) (in THF, 298.15 K): 0.0463
solubility (mole fraction) (in THF, 303.15 K): 0.0554
solubility (mole fraction) (in THF, 308.15 K): 0.0625
solubility (mole fraction) (in THF, 313.15 K): 0.0756
solubility (mole fraction) (in THF, 318.15 K): 0.0933
solubility (mole fraction) (in THF, 323.25 K): 0.114
solubility (mole fraction) (in acetonitrile, 278.15 K): 0.0265
solubility (mole fraction) (in acetonitrile, 283.15 K): 0.0354
solubility (mole fraction) (in acetonitrile, 288.15 K): 0.0432
solubility (mole fraction) (in acetonitrile, 293.15 K): 0.0536
solubility (mole fraction) (in acetonitrile, 298.15 K): 0.0576
solubility (mole fraction) (in acetonitrile, 303.15 K): 0.0681
solubility (mole fraction) (in acetonitrile, 308.15 K): 0.0888
solubility (mole fraction) (in acetonitrile, 313.15 K): 0.105
solubility (mole fraction) (in acetonitrile, 318.15 K): 0.128
solubility (mole fraction) (in acetonitrile, 323.15 K): 0.156
solubility (mole fraction) (in ethanol, 273.15 K): 0.00768
solubility (mole fraction) (in ethanol, 278.15 K): 0.0108
solubility (mole fraction) (in ethanol, 283.15 K): 0.0138
solubility (mole fraction) (in ethanol, 288.15 K): 0.0179
solubility (mole fraction) (in ethanol, 293.15 K): 0.0233
solubility (mole fraction) (in ethanol, 298.15 K): 0.0298
solubility (mole fraction) (in ethanol, 303.15 K): 0.0363
solubility (mole fraction) (in ethanol, 308.15 K): 0.0451
solubility (mole fraction) (in ethanol, 313.15 K): 0.0606
solubility (mole fraction) (in ethanol, 318.15 K): 0.078
solubility (mole fraction) (in ethyl acetate, 278.15 K): 0.00986
solubility (mole fraction) (in ethyl acetate, 283.15 K): 0.0117
solubility (mole fraction) (in ethyl acetate, 288.15 K): 0.014
solubility (mole fraction) (in ethyl acetate, 293.15 K): 0.0167
solubility (mole fraction) (in ethyl acetate, 298.15 K): 0.02
solubility (mole fraction) (in ethyl acetate, 303.15 K): 0.0242
solubility (mole fraction) (in ethyl acetate, 308.15 K): 0.0286
solubility (mole fraction) (in ethyl acetate, 313.15 K): 0.0353
solubility (mole fraction) (in ethyl acetate, 318.15 K): 0.0435
solubility (mole fraction) (in ethyl acetate, 323.15 K): 0.0565
solubility (mole fraction) (in isobutanol, 278.15 K): 0.0101
solubility (mole fraction) (in isobutanol, 283.15 K): 0.0123
solubility (mole fraction) (in isobutanol, 288.15 K): 0.014
solubility (mole fraction) (in isobutanol, 293.15 K): 0.0158
solubility (mole fraction) (in isobutanol, 298.15 K): 0.0191
solubility (mole fraction) (in isobutanol, 303.15 K): 0.0216
solubility (mole fraction) (in isobutanol, 308.15 K): 0.0255
solubility (mole fraction) (in isobutanol, 313.15 K): 0.0301
solubility (mole fraction) (in isobutanol, 318.15 K): 0.0334
solubility (mole fraction) (in isobutanol, 323.15 K): 0.0379
solubility (mole fraction) (in isopentanol, 278.15 K): 0.00453
solubility (mole fraction) (in isopentanol, 283.15 K): 0.0054
solubility (mole fraction) (in isopentanol, 288.15 K): 0.00647
solubility (mole fraction) (in isopentanol, 293.15 K): 0.00801
solubility (mole fraction) (in isopentanol, 298.15 K): 0.0104
solubility (mole fraction) (in isopentanol, 303.15 K): 0.0123
solubility (mole fraction) (in isopentanol, 308.15 K): 0.0154
solubility (mole fraction) (in isopentanol, 313.15 K): 0.0184
solubility (mole fraction) (in isopentanol, 318.15 K): 0.0232
solubility (mole fraction) (in isopentanol, 323.15 K): 0.0316
solubility (mole fraction) (in isopropanol, 273.15 K): 0.00439
solubility (mole fraction) (in isopropanol, 278.15 K): 0.00482
solubility (mole fraction) (in isopropanol, 283.15 K): 0.00579
solubility (mole fraction) (in isopropanol, 288.15 K): 0.00703
solubility (mole fraction) (in isopropanol, 293.15 K): 0.00857
solubility (mole fraction) (in isopropanol, 298.15 K): 0.0103
solubility (mole fraction) (in isopropanol, 303.15 K): 0.0122
solubility (mole fraction) (in isopropanol, 308.15 K): 0.0139
solubility (mole fraction) (in isopropanol, 313.15 K): 0.0162
solubility (mole fraction) (in isopropanol, 318.15 K): 0.0188
solubility (mole fraction) (in methyl acetate, 278.15 K): 0.0397
solubility (mole fraction) (in methyl acetate, 283.15 K): 0.05
solubility (mole fraction) (in methyl acetate, 288.15 K): 0.0545
solubility (mole fraction) (in methyl acetate, 293.15 K): 0.063
solubility (mole fraction) (in methyl acetate, 298.15 K): 0.0728
solubility (mole fraction) (in methyl acetate, 303.15 K): 0.0835
solubility (mole fraction) (in methyl acetate, 308.15 K): 0.0954
solubility (mole fraction) (in methyl acetate, 313.15 K): 0.111
solubility (mole fraction) (in methyl acetate, 318.15 K): 0.126
solubility (mole fraction) (in methyl acetate, 323.15 K): 0.139
solubility (mole fraction) (in n-butanol, 278.15 K): 0.0105
solubility (mole fraction) (in n-butanol, 283.15 K): 0.0129
solubility (mole fraction) (in n-butanol, 288.15 K): 0.0141
solubility (mole fraction) (in n-butanol, 293.15 K): 0.0177
solubility (mole fraction) (in n-butanol, 298.15 K): 0.0208
solubility (mole fraction) (in n-butanol, 303.15 K): 0.0243
solubility (mole fraction) (in n-butanol, 308.15 K): 0.0262
solubility (mole fraction) (in n-butanol, 313.15 K): 0.0328
solubility (mole fraction) (in n-butanol, 318.15 K): 0.0382
solubility (mole fraction) (in n-butanol, 323.15 K): 0.0452
solubility (mole fraction) (in n-propanol, 278.15 K): 0.00795
solubility (mole fraction) (in n-propanol, 283.15 K): 0.011
solubility (mole fraction) (in n-propanol, 288.15 K): 0.0123
solubility (mole fraction) (in n-propanol, 293.15 K): 0.0183
solubility (mole fraction) (in n-propanol, 298.15 K): 0.022
solubility (mole fraction) (in n-propanol, 303.15 K): 0.0278
solubility (mole fraction) (in n-propanol, 308.15 K): 0.0387
solubility (mole fraction) (in n-propanol, 313.1 K): 0.0433
solubility (mole fraction) (in n-propanol, 318.15 K): 0.0572
solubility (mole fraction) (in n-propanol, 323.15 K): 0.0804
solubility (mole fraction) (in sec-butanol, 278.15 K): 0.00274
solubility (mole fraction) (in sec-butanol, 283.15 K): 0.00346
solubility (mole fraction) (in sec-butanol, 288.15 K): 0.0047
solubility (mole fraction) (in sec-butanol, 293.15 K): 0.00513
solubility (mole fraction) (in sec-butanol, 298.15 K): 0.00739
solubility (mole fraction) (in sec-butanol, 303.15 K): 0.00958
solubility (mole fraction) (in sec-butanol, 308.15 K): 0.0115
solubility (mole fraction) (in sec-butanol, 313.15 K): 0.0142
solubility (mole fraction) (in sec-butanol, 318.15 K): 0.0194
solubility (mole fraction) (in sec-butanol, 323.15 K): 0.0224
solubility (mole fraction) (in water, 278.15 K): 0.000281
solubility (mole fraction) (in water, 283.15 K): 0.000319
solubility (mole fraction) (in water, 288.15 K): 0.000349
solubility (mole fraction) (in water, 293.15 K): 0.000376
solubility (mole fraction) (in water, 298.15 K): 0.00042
solubility (mole fraction) (in water, 303.15 K): 0.000458
solubility (mole fraction) (in water, 308.15 K): 0.000499
solubility (mole fraction) (in water, 313.15 K): 0.000542
solubility (mole fraction) (in water, 318.15 K): 0.000574
solubility (mole fraction) (in water, 323.15 K): 0.000633
